Patent US20060154993A1, “Method for treating and preventing male infertility” (priority 2004, published 2006)
Where “and” joins values, the source holds several entries; their conditions need not be identical. Identical values can stand only once. Marks after values point to notes of the source that are not given here.

Experiments:
[1] = Phosphatidylcholine (PC) levels in seminal plasma and sperm cells by HPLC-UV after CoQ10 treatment; type: in vivo, human; settings: after 6 months CoQ10 orally, mean ± SD, P<0.05
Experimental: (§1) The enrolled patients underwent dietary implementation of CoQ10 (PharmaNord, Veyle, Denmark), 200 mg/day twice daily orally for 6 months. Clinical examination, semen analysis including computer-assisted sperm analysis (CASA), and CoQ10 and PC assays were performed at baseline and after 6 months of therapy. An additional semen analysis was performed 6 months after the termination of therapy (wash-out). This study was approved by the Institutional Review Board of the University of Ancona-Umberto I Hospital. All patients provided their written informed consent and completed the entire trial.
Analysis of PC was performed according to Frei et al. with the modification described by Yamamoto et al. After adding 1 mL of methanol to a cellular suspension containing about 10^6 sperm cells or to 50 μL of seminal plasma, samples were mixed for 1 minute; then 6 mL of hexane were added and samples were mixed again before centrifugation (10 minutes at 500 g). Supernatant was collected and dried with a nitrogen stream. Dried sample residues were dissolved in 300 μL of ethanol.
Phosphatidylcholine was essentially determined according to Frei et al. An analytical column was a Supelcosil LCSi, 25 cm×0.46 cm ID, 5 μm (Supelco). A Jasco HPLC System (Jasco Corporation, Tokyo, Japan) provided with two PU-980 pumps, and a UV detector set at 205 nm wavelength was used for detention of total PC.

[2] = CoQ10 levels in seminal plasma and sperm cells by HPLC-EC, idiopathic asthenospermia patients on CoQ10; type: in vivo, human
Experimental: (§2) Twenty-two patients (mean age, 31 years; range, 25-39 years) with idiopathic asthenospermia were enrolled in the study. The patients were selected at the Andrology Unit of the Division of Endocrinology, Umberto I Hospital, University of Ancona, Ancona, Italy. All subjects underwent medical screening, including history and clinical examination, and presented with a clinical history of primary infertility of at least 3 years. Testicular volume was evaluated in each patient using Prader's orchidometer. To accomplish a complete diagnosis, the following investigations were also performed: semen analysis; Mar-test (SperMar test, Diasint, Florence, Italy) for anti-spermatozoa antibodies (Ab); sperm culture and urethral specimens collection for Chlamydia and Mycoplasma ureoliticum detection; FSH, LH, T, E2, and PRL assays, using commercial RIA kits; and testicular, prostatic, and seminal vesicle ultrasound and echo-color Doppler of venous spermatic plexus for anatomical abnormalities and varicocele detection.
as §1
The liquefied semen samples were centrifuged at room temperature at 500×g for 18 minutes. The sperm cell pellet was washed with 0.15 M NaCl. Two hundred fifty microliters of 1-propanol were added to 50 μL of a cellular suspension containing 10^6 sperm cells or to 50 μL of seminal plasma. After mixing for 1 minute, the samples were centrifuged for 5 minutes at 2,000×g and the obtained supernatants were injected into the high pressure liquid chromatography (HPLC) apparatus. […]
CoQ10 levels were assayed in sperm cells and seminal plasma using a Beckman Gold HPLC System (Beckman Instruments, San Ramon, Calif.) equipped with an electrochemical detector (EC, ESA 5100, Bedford, Mass.) as described elsewhere. The detector was supplied with a guard cell and an analytical cell with two electrodes in series; the potentials applied to the electrodes were, respectively, +0.6V, −0.45V, and +0.6V; chromatograms were recorded from the second analytical cell signal. One hundred microliters of samples were directly injected into the analytical column and analyzed; an analytical column was a Supelcosil reverse-phase C18, 15 cm×0.46 cm ID, 3 μm (Supelco, Inc., Bellefonte, Pa.). […]

[3] = after chronic administration of the quinone; commonly found; cited from earlier work
Safety assessment = type: in vivo, human; settings: oral administration, 6 months
Source text: Safety assessment included medical history, physical examination, hematological screening, and serum chemistry at all visits and the monitoring of drug-related adverse events by recordation in patient diaries.

[4] = tested on: idiopathic asthenospermia; assay: Spontaneous pregnancy after CoQ10 therapy; type: in vivo, human; settings: within 3 months of the discontinuation of therapy
Experimental: as §2
There was no apparent female factor, since all partners (mean age, 28 years; range, 23-35 years) were ovulating regularly as formally proven by luteal phase progesterone (P) levels and no abnormal fallopian tube anatomy was detected after hysterosalpingography. […]

sperm cells [5] = assay: Computer-assisted sperm analysis (CASA) of sperm cell motility; type: in vivo, human; settings: after 6 months treatment, P<0.05; for Straight progressive velocity (VSL): baseline 15.20 ± 1.30; for Curvilinear velocity (VCL): baseline 26.31 ± 1.50
Experimental: as §1
In addition, CASA for sperm cell motility was performed, as reported elsewhere. One semen aliquot (3 μL) was placed in a 20-μm depth chamber. Two 20-μm depth cell-VU chambers (Conception Technologies, La Jolla, Calif.) were loaded, and six different fields per chamber were randomly examined and at least 200 sperm for each field of the chamber were scored. Percentages of motile sperm and movement characteristics were analyzed using an automated analyzer at 37° C. (CellTrack VP 110, Motion Analysis Corporation, Palo Alto, Calif.). Sperm velocity and kinetic characteristics were evaluated only for motile sperm and expressed as mean values considering curvilinear velocity (VCL) and straight progressive velocity (VSL).

sperm cells [6] = assay: Seminal fluid analysis (WHO criteria): sperm concentration, motility, morphology; type: in vivo, human; settings: for Sperm concentration / Teratozoospermia: NS
Experimental: as §1
Semen quality was assessed by the same biologist in terms of sperm concentration, motility, and morphology in accordance with WHO criteria. Briefly, seminal fluid was obtained by masturbation after 3-5 days of sexual abstinence. The samples were kept in the andrology lab at room temperature and processed within 1 hour from ejaculation. Sperm count was determined with the Makler chamber. Motile spermatozoa were assessed by phase contrast microscopy (10 μL of semen was delivered onto a glass slide and covered with a 22 mm×22 mm coverslip) and graded as follows: class a and b, fast and weak forward motility; class c, nonprogressive motility; class d, immobile spermatozoa. Sperm morphology was evaluated on smears of seminal fluid, stained with the Giemsa method, and observed by oil immersion light microscopy. Conventional immunocytochemistry was used to assess WBC.

[7] = after 6 months wash-out, listed as coenzyme Q10

COC1=C(OC)C(=O)C(C/C=C(\C)CC/C=C(\C)CC/C=C(\C)CC/C=C(\C)CC/C=C(\C)CC/C=C(\C)CC/C=C(\C)CC/C=C(\C)CC/C=C(\C)CCC=C(C)C)=C(C)C1=O [CoQ10, ubiquinone]
PC, seminal plasma ([1]; baseline 1.49 ± 0.50): 5.84±1.15 μM and 5.84 ± 1.15^b μM | PC, sperm cells ([1]; baseline 6.83 ± 0.98): 9.67±1.23 nmol/10^6 cells and 9.67 ± 1.23^b nmol/10^6 cells | CoQ10, seminal plasma ([2]; after 6 months CoQ10 200 mg/day twice daily orally, baseline 42.0 ± 5.1, mean ± SD, P<0.005): 127.1 ± 1.9^a ng/mL | CoQ10, sperm cells ([2]; after 6 months CoQ10 orally, baseline 3.1 ± 0.4, mean ± SD, P<0.05): 6.5±0.3 ng/10^6 cells and 6.5 ± 0.3^b ng/10^6 cells | seminal plasma CoQ10 post-treatment level relative to basal ([2]; after 6 months treatment): 3 times | concentration at 6 months ([2]; male, human, seminal plasma, po, after 6 months CoQ10 200 mg/day twice daily orally, baseline 42.0 ± 5.1, mean ± SD, P<0.005): 127 ± 1.9 ng/mL | increase of CoQ10 concentration in blood plasma compared with baseline value [3]: 2-3 times | laboratory abnormalities (Safety assessment): no laboratory abnormalities were observed | tolerability (Safety assessment): generally well tolerated | patients who achieved spontaneous pregnancy ([4]; three out of 22 patients): 13.6% | pregnancy rate per cycle [4]: 2.4% | Straight progressive velocity (VSL) (sperm cells [5]): 20.40±2.17 um/second | Straight progressive velocity (VSL) (sperm cells [5]; listed as coenzyme Q10): 20.40 ± 2.17^a um/second | Curvilinear velocity (VCL) (sperm cells [5]): 46.43±2.28 um/second | Curvilinear velocity (VCL) (sperm cells [5]; listed as coenzyme Q10): 46.43 ± 2.28^a um/second | Forward Motility (class a+b) (sperm cells [6]; after 6 months treatment, baseline 9.13 ± 2.50, P<0.05): 16.34%±3.43 | Forward Motility (class a+b) (sperm cells [6]; after 6 months treatment, baseline 9.13 ± 2.50, P<0.05, listed as coenzyme Q10): 16.34 ± 3.43^a % | Sperm concentration (sperm cells [6]; after 6 months treatment, baseline 27.60 ± 7.41): No significant differences | Sperm concentration (sperm cells [6]; after 6 months treatment, baseline 27.60 ± 7.41, listed as coenzyme Q10): 25.92 ± 5.63, NS 106/mL | Teratozoospermia (sperm cells [6]; after 6 months treatment, baseline 69.76 ± 4.63): No significant differences | Teratozoospermia (sperm cells [6]; after 6 months treatment, baseline 69.76 ± 4.63, listed as coenzyme Q10): 67.82 ± 7.44, NS % | Forward Motility (class a+b) (sperm cells [6]; after 6 months wash-out): 9.50% ±2.28 | Sperm concentration (sperm cells [6]; after 6 months wash-out): no significant differences | Teratozoospermia (sperm cells [6]; after 6 months wash-out): no significant differences | Sperm concentration (sperm cells [6]; [7]): 26.18 ± 4.04, NS 106/mL | Teratozoospermia (sperm cells [6]; [7]): 66.23 ± 5.34, NS % | Forward Motility (class a+b) (sperm cells [6]; [7]): 9.50 ± 2.28^b %
